The text below walks through data of patent US5473055A, “Polymer-bound paclitaxel derivatives” (Farmitalia Carlo Erba S.r.l., priority 1992, dated 1995).

The test system of one data set is Calf brain tubulin. Kind of data set: Microtubule assembly and disassembly assay. It is filed as biochemical. The following applies: percentage of repolymerisation induced after CaCl2 depolymerisation. The method, then:
Calf brain tubulin was prepared by two cycles of assembly-disassembly (Shelanski M. L. Gaskin F. and Cantor C. R., Proc. Natl. Acad. Sci. U.S.A. 70, 765-768, 1973) and stored in liquid nitrogen in MAB (0.1M MES, 2.5 mM EGTA, 0.5 mM MgSO4, 0.1 mM EDTA, 0.1 mM DTT pH 6.4).
All the experiments were carried out on protein stored for less than 4 weeks.
Before each experiment, the tubulin was kept 30 min at 4° C.
Assembly was monitored by the method of Gaskin et al (Gaskin F., Cantor C. R. Shelanski M. L. J. Molec. Biol 89, 737-758, 1974). The cuvette (1 cm path) containing tubulin (1 mg/ml) and 1 mM GTP was shifted to 37° C. and continous turbidity measurements were made at 340 nm on Perkin-Elmer 557 Double Wavelength Double Beam Spectrophotometer equipped with an automatic recorder and a termostatically regulated sample chamber.
After 30 minutes 4 mM CaCl2 was added and depolymerisation was measured for 10 minutes as decreased turbidity. At regular intervals of 15 minutes scalar doses of the tested compounds were added and variations in the turbidity were monitored. Data are espressed as percentage of ripolymerisation induced by the tested compounds.

Data set [1] relates to B16-F10 murine melanoma cells. Kind of data set: In vitro drug sensitivity assay. It is filed as cell-based. The following applies: 72 hrs incubation, cell counting, read-out: IC50 (dose causing 50% inhibition cell growth). How it is done:
Exponentially growing B16-F10 murine melanoma cells were seeded (2×10^4 /ml) in RPMI 1640 medium were supplemented with 10% heat-inactivated fetal calf serum and 2 mM glutamine in 24 well-plates (Costar). Scalar concentrations of tested compounds were added immediately after seeding. The inhibition of cell growth was evaluated by counting cells with a coulter counter after 72 hrs incubation. For each tested compound concentration triplicate cultures were used. The antiproliferative activity of the tested compounds was calculated from dose-response curves and espressed as IC50 (dose causing 50% inhibition cell growth in treated cultures relative to untreated controls).

The next data set deals with B16 F10 murine melanoma. Description: In vivo antitumor activity against B16 F10 murine melanoma. Also on record: species or system C57B16 female mice. How it is done: The copolymer-paclitaxel prepared in Example 6 was tested in vivo against B16 F10 murine melanoma in comparison with paclitaxel.
C57B16 female mice were obtained from Charles River Italy.
Animals were 8 to 10 weeks old at the beginning of the experiment.
The murine melanoma B16F10 was used. A suspension of 10^5 tumor cells in 0.2 ml was injected subcutaneously in the flank of mice.
Tumor size was measured with caliper and tumor weight was calculated with the formula: [formula]
(§1) The compound of example 6 was injected intravenously. Both compounds were administered at day 1, 5, 9 after tumor implantation.
The dose of the polymer-conjugate is referred to the paclitaxel content.

Data set [2] can be described thus: TOX determination in tumor-bearing mice. It is filed as in vivo, C57B16 female mice. The following applies: day 1, 5, 9. How it is done: as §1
TOX: number of mice which died for toxicity.
TOX determination was made when mice died before the control or when significant body weight loss and/or spleen and or/or liver size reduction were observed.

Read-outs that look alike come from different tables or passages of the source.

As to `CC(=O)OC1C(=O)C2(C)C(O)CC3OCC3(OC(C)=O)C2C(OC(=O)c2ccccc2)C2(O)CC(OC(=O)C(OC(=O)CNC(=O)C(CC(C)C)NC(=O)C(N)Cc3ccccc3)C(NC(=O)c3ccccc3)c3ccccc3)C(C)=C1C2(C)C` (stereo not shown) [Example 3, 2'(phenylalanyl-leucyl-glycyl)paclitaxel], the “Tubulin Assembly %” value came to 46% with Calf brain tubulin (0.5 μM) and 86% with Calf brain tubulin (5 μM). The IC50 (usually the concentration that inhibits the measured activity by half) in data set [1] (Mus musculus) stood at 23 µM.

In the case of `CC(=O)OC1C(=O)C2(C)C(OC(=O)CCN)CC3OCC3(OC(C)=O)C2C(OC(=O)c2ccccc2)C2(O)CC(OC(=O)C(O)C(NC(=O)c3ccccc3)c3ccccc3)C(C)=C1C2(C)C` (stereo not shown) [Example 9, 7-(βalanyl)paclitaxel], the “Tubulin Assembly %” value was 79% in the data set on Calf brain tubulin (0.5 μM) and 145% in the data set with Calf brain tubulin (5 μM). The IC50 in data set [1] (Mus musculus) was 47 µM.

As for `CC(=O)O[C@H]1C(=O)[C@@]2(C)[C@H]([C@H](OC(=O)c3ccccc3)[C@]3(O)C[C@H](OC(=O)[C@H](O)[C@@H](NC(=O)c4ccccc4)c4ccccc4)C(C)=C1C3(C)C)[C@]1(OC(C)=O)CO[C@@H]1C[C@@H]2O` [Paclitaxel], the results for the “Tubulin Assembly %” value in the data set on Calf brain tubulin (0.5 μM) and in the data set on Calf brain tubulin (5 μM) were 41% and 96%, respectively. Also, the “Appearance of the solution” value (Cremophor EL 50% and ethanol 50%, diluted with glucose 5% solution) was “slightly hazy and precipitates formation was observed after short time”. In addition, the “Tumor Inhibition (%)” value came to 53% with B16 F10 murine melanoma (14.6 mg/Kg intraperitoneally, day 1, 5, 9 after tumor implantation); 38% with B16 F10 murine melanoma (22 mg/Kg intraperitoneally, day 1, 5, 9); 92% with B16 F10 murine melanoma (33 mg/Kg intraperitoneally, day 1, 5, 9). For the same molecule, the IC50 in data set [1] (Mus musculus) turned out to be 39 µM. The “Tox: number of mice which died for toxicity” value in data set [2] (14.6 mg/Kg intraperitoneally) is recorded as 0/10; in data set [2] (22 mg/Kg intraperitoneally), 0/10; in data set [2] (33 mg/Kg intraperitoneally), 1/7.

For “Copolymer of 1-methacryloylamino-2-hydroxypropane,1-(methacryloyl-glycyl-phenylanyl-leucyl-glycyl)amino-2hydroxypropane and 2(methacryloyl-glycyl-phenylalanyl-leucyl-glycyl-βalanyl)paclitaxel [Example 6]”, the figures for the “Tubulin Assembly %” value with Calf brain tubulin (0.5 μM) and in the data set with Calf brain tubulin (5 μM) were 0% and 10%, respectively. Also, the “Dissolution in glucose 5%” value (glucose 5%) was “easily dissolved”. Moreover, under “solution in glucose 5%”, the “Time the resulting solution was clear” value is recorded as “more than 2 hours”. Moreover, the “Tumor Inhibition (%)” value in the data set on B16 F10 murine melanoma (14.6 mg/Kg (paclitaxel content) intravenously, day 1, 5, 9) was 77%; in the data set on B16 F10 murine melanoma (22 mg/Kg (paclitaxel content) intravenously, day 1, 5, 9), 79%. Besides, in data set [1], the IC50 was 51 µM. For the same molecule, the “Tox: number of mice which died for toxicity” value in data set [2] (14.6 mg/Kg (paclitaxel content) intravenously) was 0/9; in data set [2] (22 mg/Kg (paclitaxel content) intravenously), 0/10.

Turning to “Copolymer of 1-methacryloylamino-2-hydroxypropane, 1 (methacryloyl-glycyl-phenylalanyl-leucyl-glycyl)amino-2-hydroxypropane and 2'(methacryloyl-glycyl-phenylalanyl-leucyl-glycyl)paclitaxel [Example 1]”, the entries for the “Tubulin Assembly %” value in the data set on Calf brain tubulin (0.5 μM) and with Calf brain tubulin (5 μM) were 0% and 15%, respectively. For the same molecule, the IC50 in data set [1] is 19 µM.

As for “Copolymer of 1-methacryloylamino-2-hydroxypropane, 1-(methacryloyl-glycyl)amino-2-hydroxypropane and 2'(methacryloyl-glycyl-phenylalanyl-leucyl-glycyl)paclitaxel [Example 4]”, the “Tubulin Assembly %” value with Calf brain tubulin (0.5 μM) came to 0%; with Calf brain tubulin (5 μM), 10%. Further, the IC50 in data set [1] was 11 µM.
